Test results reported in US6509367B1 (priority 2001, dated 2003).
Like-named read-outs stand apart in the source and are kept apart here.

How the values were obtained:
CB1 receptor = CB1 receptor (Rattus norvegicus, UniProt P20272); test: biochemical; type: binding; settings: for Ki: 1 nM [3H] CP 55,940, rat whole brain P2 membranes, 30° C. for 1 hr
Procedure: (§1) Male ICR mice (25-32 g), purchased from Harlan (Dublin, Va.), were housed in groups of five. All animals were kept in a temperature-controlled (20-22° C.) environment with a 12-hour light-dark cycle (lights on at 7 a.m.). Separate mice were used for testing each drug dose in the in vivo behavioral procedures. The mice were maintained on a […] light: dark cycle, and received food and water ad libitum. Brain tissue for binding studies was obtained from male Sprague-Dawley rats (150-200 g) purchased from Harlan Laboratories (Dublin, Va.).
All assays, as described briefly below, were performed in triplicate, and the results represent the combined data from three to six individual experiments. Following decapitation and rapid removal of the brain, whole brain was homogenized and centrifuged. The resulting pellet was termed P1. The supernatant was saved and combined with the two subsequent supernatants obtained from washing of the P1 pellet. The combined supernatant fractions were centrifuged, resulting in the P2 pellet. After further incubation and centrifuging, this pellet was resuspended in assay buffer to a protein concentration of approximately 2 mg/ml. The membrane preparation was quickly frozen in a bath solution of dry ice and 2-methylbutane (Sigma Chemical Co., St. Louis, Mo.), then stored at −80° C. for no more than 2 weeks. […] Binding was initiated by the addition of 150 μg of P2 membrane to test tubes containing 1 nM of [3H] […] Following incubation at 30° C. for 1 hr, binding was terminated by addition of ice-cold buffer and vacuum filtration through pretreated filters in a 12-well sampling manifold (Millipore, Bedford, Mass.). After washing, filters were placed into plastic scintillation vials (Packard, Downer Grove, Ill.) and shaken. The quantity of radioactivity present was determined by liquid scintillation spectrometry.

mice [1] = test: Spontaneous activity in mice, compound in combination with 3 mg/kg Δ^9-THC (antagonism test); type: in vivo; settings: for SA: maximum % antagonism of 3 mg/kg Δ^9-THC: analog 10 min before Δ^9-THC
Procedure: as §1
(§2) Measurement of spontaneous activity in mice occurred in standard activity chambers interfaced with a Digiscan Animal Activity Monitor (Omnitech Electronics, Inc., Columbus, Ohio). A standard tail-flick apparatus (described by Dewey et al., 1970) and a digital thermometer (Fisher Scientific, Pittsburgh, Pa.) were used to measure antinociception and rectal temperature, respectively.
(§3) All drugs were administered to the mice intravenously (i.v.) in the tail vein at a volume of 0.1 ml/10 g.
(§4) Maximum latency of 10 sec was used.

mice [2] = test: Tail-flick antinociception in mice, compound alone (agonism test); type: in vivo; settings: for TF: > dose, 50% activity not achieved at this highest dose tested: i.v.; for ED50: Mus musculus, iv, read-out: TF: > dose, 50% activity not achieved at this highest dose tested
Procedure: as §1, §2, §3, §4

mice [3] = test: Spontaneous (locomotor) activity in mice, compound alone (agonism test); type: in vivo; settings: for SA: > dose, 50% activity not achieved at this highest dose tested / ED50: mice, i.v.; for change in vivo at 30 mg/kg / change in vivo at 1 mg/kg: read-out: Max stim of spontaneous locomotor activity, Compound Alone; for ED50: read-out: SA: > dose, 50% activity not achieved at this highest dose tested; for Max % inhibit of spontaneous locomotor activity, Compound Alone (in words: stimulation instead of inhibition): doses in mg/kg
Procedure: as §1, §2, §3, §4

mice [4] = test: Rectal temperature (hypothermia) in mice, compound alone (agonism test); type: in vivo; settings: for RT: > dose, 50% activity not achieved at this highest dose tested: i.v.; for ED50: Mus musculus, iv, read-out: RT: > dose, 50% activity not achieved at this highest dose tested
Procedure: as §1, §2, §3, §4

mice [5] = test: Rectal temperature in mice, compound in combination with 3 mg/kg Δ^9-THC (antagonism test); type: in vivo
Procedure: as §1, §2, §3, §4

mice [6] = test: Tail-flick antinociception in mice, compound in combination with 3 mg/kg Δ^9-THC (antagonism test); type: in vivo
Procedure: as §1, §2, §3, §4

[7] = Mus musculus, iv, at 30 mg/kg i.v.
[8] = at the dose(s) [mg/kg] given in parentheses in the cell
[9] = Mus musculus, iv, at 1 mg/kg i.v.

Sequence of CB1 receptor (P20272 whole entry): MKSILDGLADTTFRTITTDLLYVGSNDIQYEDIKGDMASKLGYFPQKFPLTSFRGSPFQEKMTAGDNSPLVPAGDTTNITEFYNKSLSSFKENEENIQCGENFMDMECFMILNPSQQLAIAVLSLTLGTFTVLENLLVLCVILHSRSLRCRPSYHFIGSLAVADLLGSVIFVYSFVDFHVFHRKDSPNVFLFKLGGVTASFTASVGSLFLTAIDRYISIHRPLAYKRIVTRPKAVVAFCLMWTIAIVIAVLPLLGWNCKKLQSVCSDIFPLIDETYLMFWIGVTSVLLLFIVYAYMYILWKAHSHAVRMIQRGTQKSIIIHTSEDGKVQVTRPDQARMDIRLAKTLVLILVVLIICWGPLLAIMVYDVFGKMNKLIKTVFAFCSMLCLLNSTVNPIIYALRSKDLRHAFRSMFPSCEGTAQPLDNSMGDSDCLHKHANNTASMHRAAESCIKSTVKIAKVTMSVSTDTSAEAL

Compound | Ki (CB1 receptor; read-out: Ki) | Max % inhibit of spontaneous locomotor activity, Compound with 3 mg/kg Δ^9-THC (mice [1]; at 0.3 mg/kg i.v.) | SA: maximum % antagonism of 3 mg/kg Δ^9-THC (mice [1]; at 3 mg/kg i.v.) | Max stim of spontaneous locomotor activity, Compound with 3 mg/kg Δ^9-THC (mice [1]; at 10 mg/kg i.v.) | TF: > dose, 50% activity not achieved at this highest dose tested (mice [2]) | SA: > dose, 50% activity not achieved at this highest dose tested (mice [3]) | RT: > dose, 50% activity not achieved at this highest dose tested (mice [4]) | ED50 (mice [2]) | change in vivo at 30 mg/kg (mice [3]; [7]) | ED50 (mice [3]; Mus musculus, iv) | Max % inhibit of spontaneous locomotor activity, Compound Alone (in words: stimulation instead of inhibition) (mice [3]) | ED50 (mice [4]) | Ki (CB1 receptor; Ki (nM)) | change in vivo at 1 mg/kg (mice [3]; [9]) | also measured
N-(N-Piperdyl)-3-(2,4-dichlrophenyl)-4-(4″-pentylphenyl)-5-iodopyrazole-carboxamide [Compound O-1704] | 2.2 nM | 85% (0.3) | 65% (3) | 49% (10) | >30 mg/kg | >30 mg/kg | >30 mg/kg |  |  |  |  |  |  |  | Max stim of spontaneous locomotor activity, Compound Alone (mice [3]; at 1 mg/kg i.v.): 57% (1); Max % inhibit of spontaneous locomotor activity, Compound Alone (mice [3]; at 30 mg/kg i.v.): 19% (30)
CCCCC(C)c1c(C)c(C(=O)NN2CCCCC2)nn1-c1ccc(Cl)cc1Cl (centres unmarked) [Compound O-1559] | 233 nM |  |  |  |  |  |  | > 30 mg/kg | 118% | > 30 mg/kg | stim at 3, 10 & 30 | > 30 mg/kg |  |  | 
CCCCCc1ccc(-c2cc(C(=O)NN3CCCCC3)nn2-c2ccc(Cl)cc2Cl)cc1 [Compound O-1710] |  |  | 50% (3) |  |  |  |  | > 30 mg/kg |  | > 30 mg/kg |  | > 30 mg/kg | 27 ± 0.86 nM | 4% | RT: maximum % antagonism of 3 mg/kg Δ^9-THC (mice [5]; at 1 mg/kg i.v.): 51% (1); CB1 binding affinity, fold decrease by hydrogen substitution at position 4 (CB1 receptor; compared to the p-pentylphenyl analog with 4-methyl): 12 fold; Max % inhibit of spontaneous locomotor activity, Compound with 3 mg/kg Δ^9-THC (mice [1]; at 10 mg/kg i.v.): 82% (10); Max stim of spontaneous locomotor activity, Compound with 3 mg/kg Δ^9-THC (in words) (mice [1]; [8]): None (0.3, 1, 3, & 10); inhibition in vivo at 10 mg/kg (mice [3]; Mus musculus, iv, at 10 mg/kg i.v., read-out: Max % inhibit of spontaneous locomotor activity, Compound Alone): 42%; % MPE: maximum % antagonism of 3 mg/kg Δ^9-THC (mice [6]; at 10 mg/kg i.v.): 62% (10)
Cc1c(COCc2cccc3ccccc23)nn(-c2ccc(Cl)cc2Cl)c1-c1ccc(Cl)cc1 [Compound O-852] |  |  |  |  |  |  |  | > 10 mg/kg |  | > 10 mg/kg | stim at 1, 3 & 10 | > 10 mg/kg | 78 ± 10 nM | 52% | stimulation of locomotor activity (mice [3]; compound alone, dose not given (see Table 5)): 52%
N-(N-Piperdyl)-3-(2,4-dichlrophenyl)-4-(4′-(1′-methylpentyl)phenyl)-5-methylpyrazole carboxamide [Compound O-1690] | 2.6 ± 0.13 nM | 88% (0.3) |  | 39% (10) | >30 mg/kg | >30 mg/kg | >30 mg/kg |  |  |  |  |  |  |  | antagonist potency, fold increase for hypothermia (mice [5]; compared to O-1302): approximately 3 fold; SA: maximum % antagonism of 3 mg/kg Δ^9-THC (mice [1]; at 1 mg/kg i.v.): 65% (1); Max % inhibit of spontaneous locomotor activity, Compound Alone (mice [3]; at 10 mg/kg i.v.): 24% (10); Max stim of spontaneous locomotor activity, Compound Alone (mice [3]; at 30 mg/kg i.v.): 18% (30); antagonist potency, fold increase for antinociception (mice [6]; compared to O-1302): approximately 3 fold
CCCCc1ccc(-n2nc(C(=O)NN3CCCCC3)c(C)c2-c2ccc(Cl)cc2)cc1 [Compound O-1254] |  |  |  |  |  |  |  | > 30 mg/kg | 29% | > 30 mg/kg | stim at 3, 10 & 30 | > 30 mg/kg | 226 ± 4 nM |  | RT: maximum % antagonism of 3 mg/kg Δ^9-THC (mice [5]; at 10 mg/kg i.v.): 31% (10); Max stim of spontaneous locomotor activity, Compound with 3 mg/kg Δ^9-THC (mice [1]; at 30 mg/kg i.v.): 13% (30); SA: maximum % antagonism of 3 mg/kg Δ^9-THC (in words) (mice [1]; [8]): stimulation; Max % inhibit of spontaneous locomotor activity, Compound with 3 mg/kg Δ^9-THC (in words) (mice [1]; doses in mg/kg): stim at 10; % MPE: maximum % antagonism of 3 mg/kg Δ^9-THC (mice [6]; at 30 mg/kg i.v.): 52% (30)
